Test results: patent publication US20210032253A1, “PYRAZOLO[1,5-A][1,3,5]TRIAZINE-2-AMINE DERIVATIVE, PREPARATION METHOD THEREFOR AND MEDICAL USE THEREOF” (JIANGSU HENGRUI MEDICINE CO., LTD., priority 2018, published 2021)

Experiments:
[1] = Pharmacokinetics assay in mice after intragastrical administration (plasma, LC/MS/MS); format: in vivo; details: mouse, po, C57 mice (female), 2 mg/kg; for Vd/F: read-out: Apparent distribution volume Vz/F; for AUC: read-out: Area under curve AUC; for CL/F: read-out: Clearance CLz/F; for Cmax: read-out: Drug concentration in blood Cmax; for half-life: read-out: Half-life T1/2 (converted); for MRT: read-out: Residence time MRT
Procedure: Test Example 2. Pharmacokinetics assay of the compounds of the present disclosure in mice
Mice were used as test animals. The drug concentration in plasma at different time points was determined by LC/MS/MS method after intragastrical administration of the compounds of Example 1, Example 18 and Example 19 to mice. The pharmacokinetic behavior of the compounds of the present disclosure was studied and evaluated in mice.
Twenty-seven C57 mice (female) were purchased from Shanghai Jiesijie Laboratory Animal Co., LTD, with Certificate No.: SCXK (Shanghai) 2013-0006, and equally divided into 3 groups (9 mice per group).
A certain amount of the test compound was weighed, and added with 2.5% by volume of DMSO, 2.5% by volume of tween 80 and 95% by volume of normal saline to prepare a 0.1 mg/mL colorless, clear and transparent solution.
After an overnight fast, C57 mice were administered intragastrically with the test compounds at an administration dose of 2.0 mg/kg and an administration volume of 0.2 mL/10 g.
The mice were intragastrically administered with the compounds of Example 1, Example 18 and Example 19. 0.1 mL of blood (3 animals at each time point) was taken before administration and at 0.5, 1.0, 2.0, 4.0, 6.0, 8.0, 11.0 and 24.0 hours after administration. The samples were stored in heparinized tubes, and centrifuged for 10 minutes at 3,500 rpm to separate the plasma. The plasma samples were stored at −20° C., the mice was feed 2 hours after administration.
The content of the test compounds in the plasma of the mice after intragastrical administration of the test compounds at different concentrations was determined: 25 μL of the plasma obtained at each time point after administration was taken, added with 30 μL of the internal standard solution of camptothecin (100 ng/mL) and 200 μL of acetonitrile, vortex-mixed for 5 minutes, and centrifuged for 10 minutes (4000 rpm). 3 μL of the supernatant was taken for LC/MS/MS analysis.

[2] = target: T1, adenosine A3 receptor (A3R) (Homo sapiens, UniProt P0DMS8); experiment: Inhibition of adenosine A3 receptor cAMP signaling pathway in CHO-K1/A3R cells (HTRF cAMP dynamic 2 kit); format: cell-based; details: Table 3; for IC50: CHO-K1/A3R cells, cAMP, 10 μM forskolin, 5 nM 2Cl-IB-MECA; for IC50 ratio (A3R/A2aR): selectivity A3R over A2aR
T1 construct: expressed in transfected cells; host or cells: CHO-K1
T1 sequence (P0DMS8 1-318): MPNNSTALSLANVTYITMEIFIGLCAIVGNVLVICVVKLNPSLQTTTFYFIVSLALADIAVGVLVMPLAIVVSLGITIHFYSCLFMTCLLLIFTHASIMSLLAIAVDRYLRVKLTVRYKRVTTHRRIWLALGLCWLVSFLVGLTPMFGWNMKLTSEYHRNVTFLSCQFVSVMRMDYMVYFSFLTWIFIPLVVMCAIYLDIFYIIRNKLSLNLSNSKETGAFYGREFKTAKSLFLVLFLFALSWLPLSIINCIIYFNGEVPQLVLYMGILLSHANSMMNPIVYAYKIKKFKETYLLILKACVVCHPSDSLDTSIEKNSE
Method in brief: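 CHO-K1 cells expressing A3R, in HBSS/HEPES/BSA with rolipram and adenosine deaminase, were preincubated 30 min with compound (0.1–100000 nM final). They were then stimulated 30 min with 10 μM forskolin plus 5 nM 2Cl-IB-MECA at room temperature. cAMP read by HTRF and IC50 calculated.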

Vd/F [1] [L/kg] | AUC [1] [ng·h/mL] | CL/F [1] [mL/min/kg] | Cmax [1] [ng/mL] | half-life [1] [h] | MRT [1] [h] | IC50 [2] [nM] | IC50 ratio (A3R/A2aR) [2] | SMILES
1.9 | 724 | 45.9 | 800 | 0.48 | 0.85 | 2060 | >10^3 | Cc1ccc(-c2nc(N)nc3c(Cc4cccc(CO[C@H]5CCOC5)n4)cnn23)o1 [Example 1, (S)-4-(5-Methylfuran-2-yl)-8-((6-(((tetrahydrofuran-3-yl)oxy)methyl)pyridin-2-yl)methyl)pyrazolo[1,5-a][1,3,5]triazin-2-amine]
0.841 | 4860 | 6.83 | 3180 | 1.42 | 1.63 | 2200 | >10^3 | Cc1ccc(-c2nc(N)nc3c(Nc4cccc(CO[C@H]5CCOC5)n4)cnn23)o1 [Example 18, (S)-4-(5-Methylfuran-2-yl)-N^8-(6-(((tetrahydrofuran-3-yl)oxy)methyl)pyridin-2-yl)pyrazolo[1,5-a][1,3,5]triazine-2,8-diamine]
2.12 | 2490 | 13.3 | 2360 | 1.85 | 1.24 | 4790 | >10^3 | Cc1ccc(-c2nc(N)nc3c(Oc4cccc(CO[C@H]5CCOC5)n4)cnn23)o1 [Example 19, (S)-4-(5-Methylfuran-2-yl)-8-((6-(((tetrahydrofuran-3-yl)oxy)methyl)pyridin-2-yl)oxy)pyrazolo[1,5-a][1,3,5]triazin-2-amine]
